According to patent US8216619B2, “Stable and bioavailable compositions of isomers of carotenoids for skin and hair” (Indena S.p.A., priority 2006, dated 2012):

Test: Stability of pure lycopene isomers in n-hexane during storage at room temperature
Type: physicochemical
Conditions: for concentration (% of total isomers) 5-Z / concentration (% of total isomers) all E / concentration (% of total isomers) x-Z / concentration (% of total isomers) 9-Z / concentration (% of total isomers) 13-Z: n-hexane, room temperature, absence of light
Description: Pure 5-Z, 9-Z, 13-Z and all-E lycopene were isolated from isomerised tomato oleoresin (submitted to 1 hour heating), by collecting the fractions containing the corresponding peaks after HPLC separation (see below the experimental conditions). Peaks were collected during two consecutive HPLC runs and the corresponding fractions were pooled.
Lycopene isomer profiles were determined by normal phase HPLC according to the method described by Schierle et al. (Schierle, J., Bretzel, W., Bühler, I., Faccin, N., Hess, D., Steiner, K., Schuep, W. (1997). Food. Chem. 59: 459). Samples of isomerized oleoresins were dissolved in n-hexane containing 50 ppm BHT and spun at maximum speed in an Eppendorf Lab centrifuge. The resulting supernatants were immediately analyzed by HPLC. The HPLC system used was a 1100 series Hewlett-Packard model equipped with an ultraviolet-visible photodiode array detector. Data were simultaneously acquired at 470 nm, 464 nm, 346 nm and 294 nm. Samples (10 μL) were separated using a combination of three Nucleosil 300-5 columns (4 mm internal diameter×250 mm length, Macherey-Nagel). […] Flow rate was 0.8 mL/min. Lycopene Z-isomers were identified according to literature data.
Amounts of lycopene isomers were calculated based on surface areas of the HPLC peaks using the same extinction coefficient as the all-E lycopene. Therefore, the lycopene concentration in products containing Z-isomers is slightly underestimated since it is recognized that the extinction coefficients of Z-isomers are lower than that of the all-E isomer.
Stability of lycopene isomers was investigated both in n-hexane and in a tomato oleoresin isomerized by 4 hour heating in ethyl acetate. For this purpose, pure lycopene isomers were stored for 33 days in n-hexane at room temperature and in the absence of light, and the isomerized tomato oleoresin was kept for 55 days at room temperature in the absence of light. Total lycopene concentration and lycopene isomer profiles were measured at various time intervals during the storage.

| concentration (% of total isomers) 5-Z (0 days) | concentration (% of total isomers) all E (0 days) | concentration (% of total isomers) x-Z (0 days) | concentration (% of total isomers) 5-Z (1 day) | concentration (% of total isomers) all E (1 day) | concentration (% of total isomers) x-Z (1 day) | concentration (% of total isomers) 5-Z (2 days) | concentration (% of total isomers) all E (2 days) | concentration (% of total isomers) x-Z (2 days) | concentration (% of total isomers) 5-Z (5 days) | concentration (% of total isomers) all E (5 days) | concentration (% of total isomers) x-Z (5 days) | concentration (% of total isomers) 5-Z (12 days) | concentration (% of total isomers) 9-Z (12 days) | concentration (% of total isomers) 13-Z (12 days) | concentration (% of total isomers) all E (12 days) | concentration (% of total isomers) x-Z (12 days) | concentration (% of total isomers) 5-Z (33 days) | concentration (% of total isomers) 9-Z (33 days) | concentration (% of total isomers) 13-Z (33 days) | Compound | further results |
| --- | --- | --- | --- | --- | --- | --- | --- | --- | --- | --- | --- | --- | --- | --- | --- | --- | --- | --- | --- | --- | --- |
| 95.5 % of total isomers | 1.1 % of total isomers | 3.4 % of total isomers | 84.3 % of total isomers | 2.2 % of total isomers | 13.5 % of total isomers | 76.9 % of total isomers | 2.4 % of total isomers | 20.6 % of total isomers | 68.4 % of total isomers | 3.9 % of total isomers | 27.7 % of total isomers | 65.3 % of total isomers | 0.7 % of total isomers | 1.7 % of total isomers | 5.6 % of total isomers | 26.7 % of total isomers | 53.5 % of total isomers | 2.3 % of total isomers | 2.8 % of total isomers | CC(C)=CCC\C(C)=C/C=C/C(C)=C/C=C/C(C)=C/C=C/C=C(C)/C=C/C=C(C)/C=C/C=C(\C)CCC=C(C)C [5-Z lycopene] | concentration (% of total isomers) all E (33 days): 10.7 % of total isomers; concentration (% of total isomers) x-Z (33 days): 30.7 % of total isomers |
| 1.8 % of total isomers | 4.4 % of total isomers | 0 % of total isomers | 2.1 % of total isomers | 5.8 % of total isomers | 2.8 % of total isomers | 11.6 % of total isomers | 6.0 % of total isomers | 5.9 % of total isomers | 1.5 % of total isomers | 5.6 % of total isomers | 8.6 % of total isomers | 2.3 % of total isomers | 66.5 % of total isomers | 8.2 % of total isomers | 7.0 % of total isomers | 15.9 % of total isomers | 4.1 % of total isomers | 56.0 % of total isomers | 10.5 % of total isomers | CC(C)=CCC/C(C)=C/C=C/C(C)=C\C=C\C(C)=C\C=C\C=C(C)\C=C\C=C(C)\C=C\C=C(/C)CCC=C(C)C [9-Z lycopene] | concentration (% of total isomers) 9-Z (0 days): 93.3 % of total isomers; concentration (% of total isomers) 13-Z (0 days): 0.6 % of total isomers; concentration (% of total isomers) 9-Z (1 day): 87.1 % of total isomers; concentration (% of total isomers) 13-Z (1 day): 2.3 % of total isomers; concentration (% of total isomers) 9-Z (2 days): 83.5 % of total isomers; concentration (% of total isomers) 13-Z (2 days): 3.1 % of total isomers; concentration (% of total isomers) 9-Z (5 days): 79.2 % of total isomers; concentration (% of total isomers) 13-Z (5 days): 5.2 % of total isomers; concentration (% of total isomers) all E (33 days): 9.8 % of total isomers; concentration (% of total isomers) x-Z (33 days): 19.7 % of total isomers |
| 0 % of total isomers | 2.4 % of total isomers | 1.0 % of total isomers | 0 % of total isomers | 42.6 % of total isomers | 0 % of total isomers | 0 % of total isomers | 59.8 % of total isomers | 1.5 % of total isomers | 1.9 % of total isomers | 68.9 % of total isomers | 4.3 % of total isomers | 5.3 % of total isomers | 2.6 % of total isomers | 20.8 % of total isomers | 65.5 % of total isomers | 5.8 % of total isomers | 11.7 % of total isomers | 4.2 % of total isomers | 16.9 % of total isomers | CC(C)=CCC/C(C)=C/C=C/C(C)=C/C=C/C(C)=C\C=C\C=C(C)\C=C\C=C(C)\C=C\C=C(/C)CCC=C(C)C [13-Z lycopene] | fraction of the isomer transformed / converted into other isomers (after 33 day storage in n-hexane at room temperature in the absence of light): more than 80%; concentration (% of total isomers) 9-Z (0 days): 0 % of total isomers; concentration (% of total isomers) 13-Z (0 days): 96.6 % of total isomers; concentration (% of total isomers) 9-Z (1 day): 0.4 % of total isomers; concentration (% of total isomers) 13-Z (1 day): 57.0 % of total isomers; concentration (% of total isomers) 9-Z (2 days): 0 % of total isomers; concentration (% of total isomers) 13-Z (2 days): 38.7 % of total isomers; concentration (% of total isomers) 9-Z (5 days): 1.5 % of total isomers; concentration (% of total isomers) 13-Z (5 days): 23.4 % of total isomers; concentration (% of total isomers) all E (33 days): 57.0 % of total isomers; concentration (% of total isomers) x-Z (33 days): 10.2 % of total isomers |
| 0.5 % of total isomers | 97.6 % of total isomers | 0.1 % of total isomers | 1.2 % of total isomers | 86.0 % of total isomers | 1.5 % of total isomers | 2.6 % of total isomers | 78.4 % of total isomers | 3.0 % of total isomers | 3.8 % of total isomers | 69.3 % of total isomers | 5.1 % of total isomers | 6.4 % of total isomers | 2.0 % of total isomers | 18.2 % of total isomers | 67.8 % of total isomers | 5.6 % of total isomers | 13.4 % of total isomers | 3.8 % of total isomers | 15.7 % of total isomers | CC(C)=CCC/C(C)=C/C=C/C(C)=C/C=C/C(C)=C/C=C/C=C(C)/C=C/C=C(C)/C=C/C=C(\C)CCC=C(C)C [all-E lycopene] | concentration (% of total isomers) 9-Z (0 days): 0.5 % of total isomers; concentration (% of total isomers) 13-Z (0 days): 1.4 % of total isomers; concentration (% of total isomers) 9-Z (1 day): 1.2 % of total isomers; concentration (% of total isomers) 13-Z (1 day): 10.1 % of total isomers; concentration (% of total isomers) 9-Z (2 days): 1.1 % of total isomers; concentration (% of total isomers) 13-Z (2 days): 15.0 % of total isomers; concentration (% of total isomers) 9-Z (5 days): 2.2 % of total isomers; concentration (% of total isomers) 13-Z (5 days): 19.6 % of total isomers; concentration (% of total isomers) all E (33 days): 58.7 % of total isomers; concentration (% of total isomers) x-Z (33 days): 8.4 % of total isomers |
